According to patent publication US20070244103A1, “Novel Compounds Having an Anti-Bacterial Activity” (Morphochem Aktiengesellschaft Fur Kombinatorische Chemie, priority 2004, published 2007):

Test: MIC of the examples against various organisms
Type: cell-based
Conditions: against at least two of the above organisms (12-strain panel)
Protocol: The MIC (μg/ml) of the examples against various organisms was determined: A. baumannii ATCC19606, E. cloacae ATCC23355, E. coli ATCC25922, K. pneumoniae ATCC27736, P. mirabilis ATCC29906, P. aeruginosa ATCC27853, S. maltophilia ATCC13637, S. aureus ATCC43300, S. epidermidis ATCC14990, S. haemolyticus ATCC29970, E. faecalis ATCC29212 and E. faecium ATC19434.

## COc1cnc2cccc(C(O)CN3CCCC(CNCc4ccc5nsnc5c4)C3)c2c1 (single isomer, unassigned) [Example 41, 2-(3-{[(Benzo[1,2,5]thiadiazol-5-ylmethyl)-amino]-methyl}-piperidin-1-yl)-1-(3-methoxy-quinolin-5-yl)-ethanol]
  MIC: ≤ 2 µg/mL

## COc1ccc2nccc(NC(=O)C3CCCC(CNC/C=C/c4ccccc4)C3)c2c1 (stereo not drawn) [Example 53, 3-[((E)-3-Phenyl-allylamino)-methyl]-cyclohexanecarboxylic acid (6-methoxy-quinolin-4-yl)-amide]
  MIC: ≤ 2 µg/mL

## COc1cnc2cccc(C(O)CN3CCCC(CNCc4ccc5c(n4)NC(=O)CS5)C3)c2n1 (stereo not drawn) [Example 90, 6-[({1-[2-Hydroxy-2-(3-methoxy-quinoxalin-5-yl)-ethyl]-piperidin-3-ylmethyl}-amino)-methyl]-4H-pyrido[3,2-b][1,4]thiazin-3-one]
  MIC: ≤ 2 µg/mL

## COc1cnc2cccc(C(O)CN3C4CCC3CC(NCc3ccc5c(c3)NC(=O)CS5)C4)c2c1 (single isomer, unassigned) [Example 36, 6-({8-[2-Hydroxy-2-(3-methoxy-quinolin-5-yl)-ethyl]-8-aza-bicyclo[3.2.1]oct-3-ylamino}-methyl)-4H-benzo[1,4]thiazin-3-one]
  MIC: ≤ 2 µg/mL

## COc1ccc2ncc(Cl)c(C(O)CN3CCCC(CNCc4cc5c(cc4F)SCC(=O)N5)C3)c2c1 (single isomer, unassigned) [Example 67, 6-[({1-[2-(3-Chloro-6-methoxy-quinolin-4-yl)-2-hydroxy-ethyl]-piperidin-3-ylmethyl}-amino)-methyl]-7-fluoro-4H-benzo[1,4]thiazin-3-one]
  MIC: ≤ 2 µg/mL

## COc1ccc2nccc(C(O)CN3CCOC(CNCc4ccc5c(c4)NC(=O)CO5)C3)c2n1 (stereo not drawn) [Example 34, 6-[({4-[2-Hydroxy-2-(6-methoxy-[1,5]naphthyridin-4-yl)-ethyl]-morpholin-2-ylmethyl}amino)-methyl]-4H-benzo[1,4]oxazin-3-one]
  MIC: ≤ 2 µg/mL

## COc1cnc2cccc(C(O)CN3C4CCC3CC(NCc3ccc5c(c3)NC(=O)CS5)C4)c2n1 (stereo not drawn) [Example 85, 6-({8-[2-Hydroxy-2-(3-methoxy-quinoxalin-5-yl)-ethyl]-8-aza-bicyclo[3.2.1]oct-3-ylamino}-methyl)-4H-benzo[1,4]thiazin-3-one]
  MIC: ≤ 2 µg/mL

## COc1ccc2nccc(NC(=O)C3CCCC(CNC/C=C/c4ccccc4)C3)c2n1 (stereo not drawn) [Example 22, 3-[((E)-3-Phenyl-allylamino)-methyl]-cyclohexanecarboxylic acid (6-methoxy-[1,5]-naphthyridin-4-yl)-amide]
  MIC: ≤ 2 µg/mL

## COc1ccc2ncc(Cl)c(C(O)CN3C4CCC3CC(NCc3ccc5nsnc5c3)C4)c2c1 (single isomer, unassigned) [Example 58, 2-{3-[(Benzo[1,2,5]thiadiazol-5-ylmethyl)-amino]-8-aza-bicyclo[3.2.1]oct-8-yl}-1-(3-chloro-6-methoxy-quinolin-4-yl)-ethanol]
  MIC: ≤ 2 µg/mL

## COc1cnc2ccc(Cl)c(C(O)CN3CCCC(CNCc4ccc5c(c4)OCO5)C3)c2n1 (stereo not drawn) [Example 94, 2-(3-{[(Benzo[1,3]dioxol-5-ylmethyl)-amino]-methyl}-piperidin-1-yl)-1-(6-chloro-3-methoxy-quinoxalin-5-yl)-ethanol]
  MIC: ≤ 2 µg/mL

## COc1ccc2nccc(NC(=O)C3CCCC(CNCc4ccc5nsnc5c4)C3)c2n1 (stereo not drawn) [Example 20, 3-{[(Benzo[1,2,5]thiadiazol-5-ylmethyl)-amino]-methyl}-cyclohexanecarboxylic acid (6-methoxy-[1,5]-naphthyridin-4-yl)-amide]
  MIC: ≤ 2 µg/mL

## COc1ccc2ncc(Cl)c(C(O)CN3CCOC(CNCc4ccc5c(c4)OCO5)C3)c2c1 (single isomer, unassigned) [Example 72, 2-(2-{[(Benzo[1,3]dioxol-5-ylmethyl)-amino]-methyl}-morpholin-4-yl)-1-(3-chloro-6-methoxy-quinolin-4-yl)-ethanol]
  MIC: ≤ 2 µg/mL

## COc1ccc2ncc(Cl)c(C(O)CN3C4CCC3CC(NCc3cc5c(cc3F)SCC(=O)N5)C4)c2n1 (stereo not drawn) [Example 28, 6-({8-[2-(3-Chloro-6-methoxy-[1,5]-naphthyridin-4-yl)-2-hydroxy-ethyl]-8-aza-bicyclo[3.2.1]oct-3-ylamino}-methyl)-7-fluoro-4H-benzo[1,4]thiazin-3-one]
  MIC: ≤ 2 µg/mL

## COc1ccc2cccc(NC(=O)C3CCCC(CNCc4ccc5c(n4)NC(=O)CS5)C3)c2n1 (stereo not drawn) [Example 108, 3-{[(3-Oxo-3,4-dihydro-2H-pyrido[3,2-b][1,4]thiazin-6-ylmethyl)-amino]-methyl}-cyclohexanecarboxylic acid (2-methoxy-quinolin-8-yl)-amide]
  MIC: ≤ 2 µg/mL

## COc1ccc2ncc(Cl)c(C(O)CN3CCCC(CNCc4ccc5nsnc5c4)C3)c2c1 (single isomer, unassigned) [Example 70, 2-(3-{[(Benzo[1,2,5]thiadiazol-5-ylmethyl)-amino]-methyl}-piperidin-1-yl)-1-(3-chloro-6-methoxy-quinolin-4-yl)-ethanol]
  MIC: ≤ 2 µg/mL

## COc1ccc2nccc(C(O)CN3CCCC(CNCc4ccc5c(c4)OCCO5)C3)c2n1 (single isomer, unassigned) [Example 3, 2-(3-{[(2,3-Dihydro-benzo[1,4]dioxin-6-ylmethyl)-amino]-methyl}-piperidin-1-yl)-1-(6-methoxy-[1,5]-naphthyridin-4-yl)-ethanol]
  MIC: ≤ 2 µg/mL

## COc1cnc2cccc(C(O)CN3CCCC(CNCc4ccc5c(c4)NC(=O)CS5)C3)c2n1 (stereo not drawn) [Example 91, 6-[({1-[2-Hydroxy-2-(3-methoxy-quinoxalin-5-yl)-ethyl]-piperidin-3-ylmethyl}-amino)-methyl]-4H-benzo[1,4]thiazin-3-one]
  MIC: ≤ 2 µg/mL

## COc1cnc2cccc(C(O)CN3C4CCC3CC(NC/C=C/c3ccccn3)C4)c2c1 (single isomer, unassigned) [Example 35, 1-(3-Methoxy-quinolin-5-yl)-2-[3-((E)-3-pyridin-2-yl-allylamino)-8-aza-bicyclo[3.2.1]oct-8-yl]-ethanol]
  MIC: ≤ 2 µg/mL

## COc1cnc2cccc(C(O)CN3C4CCC3CC(NC/C=C/c3ccccc3)C4)c2c1 (stereo not drawn) [Example 38, 1-(3-Methoxy-quinolin-5-yl)-2-[3-((E)-3-phenylallylamino)-8-aza-bicyclo[3.2.1]oct-8-yl]-ethanol]
  MIC: ≤ 2 µg/mL

## COc1cnc2cccc(C(O)CN3C4CCC3CC(NCc3ccc5c(n3)NC(=O)CS5)C4)c2n1 (stereo not drawn) [Example 79, 6-({8-[2-Hydroxy-2-(3-methoxy-quinoxalin-5-yl)-ethyl]-8-aza-bicyclo[3.2.1]oct-3-ylamino}-methyl)-4H-pyrido[3,2-b][1,4]thiazin-3-one]
  MIC: ≤ 2 µg/mL

## COc1ccc2nccc(NC(=O)C3CCCC(CNCc4ccc5c(c4)NC(=O)CS5)C3)c2n1 (stereo not drawn) [Example 16, 3-{[(3-Oxo-3,4-dihydro-2H-benzo[1,4]thiazin-6-ylmethyl)-amino]-methyl}-cyclohexanecarboxylic acid (6-methoxy-[1,5]-naphthyridin-4-yl)-amide]
  MIC: ≤ 2 µg/mL

## COc1ccc2nccc(NC(=O)C3CCCC(CNCc4ccc5c(c4)OCCO5)C3)c2n1 (stereo not drawn) [Example 19, 3-{[(2,3-Dihydro-benzo[1,4]dioxin-6-ylmethyl)-amino]-methyl}-cyclohexanecarboxylic acid (6-methoxy-[1,5]-naphthyridin-4-yl)-amide]
  MIC: ≤ 2 µg/mL

## COc1ccc2nccc(NC(=O)C3CCCC(CNCc4cc5c(cc4F)SCC(=O)N5)C3)c2n1 (stereo not drawn) [Example 24, 3-{[(7-Fluoro-3-oxo-3,4-dihydro-2H-benzo[1,4]thiazin-6-ylmethyl)-amino]-methyl}-cyclohexanecarboxylic acid (6-methoxy-[1,5]-naphthyridin-4-yl)-amide]
  MIC: ≤ 2 µg/mL

## COc1cnc2cccc(C(O)CN3C4CCC3CC(NCc3ccc5nsnc5c3)C4)c2c1 (stereo not drawn) [Example 40, 2-{3-[(Benzo[1,2,5]thiadiazol-5-ylmethyl)-amino]-8-aza-bicyclo[3.2.1]oct-8-yl}-1-(3-methoxy-quinolin-5-yl)-ethanol]
  MIC: ≤ 2 µg/mL

## COc1cnc2cccc(C(O)CN3C4CCC3CC(NCc3ccc5c(c3)NC(=O)CO5)C4)c2n1 (stereo not drawn) [Example 80, 6-({8-[2-Hydroxy-2-(3-methoxy-quinoxalin-5-yl)-ethyl]-8-aza-bicyclo[3.2.1]oct-3-ylamino}-methyl)-4H-benzo[1,4]oxazin-3-one]
  MIC: ≤ 2 µg/mL

## COc1ccc2ncc(Cl)c(C(O)CN3C4CCC3CC(NCc3ccc5c(c3)NC(=O)CS5)C4)c2n1 (stereo not drawn) [Example 29, 6-({8-[2-(3-Chloro-6-methoxy-[1,5]-naphthyridin-4-yl)-2-hydroxy-ethyl]-8-aza-bicyclo[3.2.1]oct-3-ylamino}-methyl)-4H-benzo[1,4]thiazin-3-one]
  MIC: ≤ 2 µg/mL

## COc1ccc2ncc(Cl)c(C(O)CN3C4CCC3CC(NCc3ccc5c(c3)NC(=O)CO5)C4)c2n1 (stereo not drawn) [Example 27, 6-({8-[2-(3-Chloro-6-methoxy-[1,5]-naphthyridin-4-yl)-2-hydroxy-ethyl]-8-aza-bicyclo[3.2.1]oct-3-ylamino}-methyl)-4H-benzo[1,4]oxazin-3-one]
  MIC: ≤ 2 µg/mL

## COc1ccc2cccc(NC(=O)C3CCCC(CNCc4cc5c(cn4)OCCO5)C3)c2n1 (stereo not drawn) [Example 111, 3-{[(2,3-Dihydro-[1,4]dioxino[2,3-c]pyridin-7-ylmethyl)-amino]-methyl}-cyclohexanecarboxylic acid (2-methoxy-quinolin-8-yl)-amide]
  MIC: ≤ 2 µg/mL

## COc1cnc2cccc(C(O)CN3CCCC(CNCc4ccc5c(c4)OCCO5)C3)c2n1 (stereo not drawn) [Example 92, 2-(3-{[(2,3-Dihydro-benzo[1,4]dioxin-6-ylmethyl)-amino]-methyl}-piperidin-1-yl)-1-(3-methoxy-quinoxalin-5-yl)-ethanol]
  MIC: ≤ 2 µg/mL

## COc1ccc2nccc(C(O)CN3C4CCC3CC(NCc3ccc5c(c3)NC(=O)CS5)C4)c2n1 (single isomer, unassigned) [Example 13, 6-({8-[2-Hydroxy-2-(6-methoxy-[1,5]-naphthyridin-4-yl)-ethyl]-8-aza-bicyclo[3.2.1]oct-3-ylamino}-methyl)-4H-benzo[1,4]thiazin-3-one]
  MIC: ≤ 2 µg/mL
